Reference: paper PMC9853864, “Nonspecific Binding of Adenosine Tripolyphosphate and Tripolyphosphate Modulates the Phase Behavior of Lysozyme” (Journal of the American Chemical Society, 2023)

Biological target: T1, hen egg-white lysozyme (HEWL); chicken egg lysozyme (Gallus gallus, UniProt P00698)
T1 construct: gene LYZ
Assay: 1H NMR titration, Trp imino CSP (W62, W111, W123), […] fit
Assay type: binding

T1 sequence (P00698 19-147): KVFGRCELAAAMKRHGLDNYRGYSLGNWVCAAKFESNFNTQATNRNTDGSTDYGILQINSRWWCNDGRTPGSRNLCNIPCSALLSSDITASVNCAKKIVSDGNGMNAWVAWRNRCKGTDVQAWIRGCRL

## O=P(O)(O)OP(=O)(O)OP(=O)(O)O [TPP]
  Kd: ~1000 µM
